Laboratory results: patent US8993542B2, “Methods of treating viral infections” (priority 2008, dated 2015)

Experiments:
[1] = tested on: HIV-1; conditions: monotherapy in naïve patients (Louie et al.); cited from earlier work
[2] = tested on: HIV; assay: microbe, parasite or virus in culture; type: cell-based
[3] = tested on: HIV-1IIIB; assay: Two-drug combination antiviral assay in CEM cells (CPE), MacSynergy II; type: cell-based; conditions: in combination with CMX157, CEM-SS cells, 95% confidence
[4] = tested on: HIV-1Ba-L
Experimental: The anti-HIV-1 activity of CMX157 is evaluated in two-drug combination studies with twenty-four different FDA-approved anti-HIV inhibitors. Each two-drug combination is tested three times in CEM T-lymphocytic cells or MAGI-CCR5 cells acutely infected with the laboratory-adapted strain HIV-1IIIB or HIV-1Ba-L, respectively. Viral growth/inhibition is evaluated by measuring virus-induced cytopathic effects (CPE) in CEM cells or by β-galactosidase reporter gene induction in MAGI-CCR5 cells at the experimental endpoint. The cytotoxicity of each two-drug combination is also evaluated in parallel with the antiviral evaluations. The concentrations of CMX157 used in these evaluations are selected in order to test a broad range of concentrations and to provide as complete a dose response curve as possible under the limitations of eight total concentrations. […] The “positive antagonism control” of d4T (stavudine) in combination with RBV was tested in parallel with each of the assays that were performed. Analysis of drug interactions for each of the two-drug combinations is performed using the Prichard and Shipman MacSynergy II three-dimensional model for statistical evaluation of combination assays.

[5] = in combination with CMX157, MAGI-CCR5 cells, 95% confidence

Compound: CC(C)OC(=O)OCOP(=O)(CO[C@H](C)Cn1cnc2c(N)ncnc21)OCOC(=O)OC(C)C.O=C(O)/C=C/C(=O)O [TDF, 2,4,6,8-Tetraoxa-5-phosphanonanedioic acid, 5-[[(1R)-2-(6-amino-9H-purin-9-yl)-1-methylethoxy]methyl]-, bis(1-methylethyl) ester, 5-oxide, (2E)-2-butenedioate (1:1)]
- viral load response [1]: −1.5 log

Compound: OC[C@@H]1CC[C@H](n2cnc3c(O)ncnc32)O1 [ddI, 2′,3′-dideoxyinosine]
- IC50 ([2]; Human immunodeficiency virus 1, PANEL 1, WT): 5.54 µM
- IC50 ([2]; Human immunodeficiency virus 1, PANEL 2, WT): 5.57 µM
- IC50 ([2]; Human immunodeficiency virus 1, PANEL 3, 6 TAMs, no 184): 8.76 µM
- IC50 ([2]; Human immunodeficiency virus 1, PANEL 6, 6 TAMs + 184): 11.3 µM
- IC50 ([2]; Human immunodeficiency virus 1, PANEL 7, 184V): 7.57 µM
- IC50 ([2]; Human immunodeficiency virus 1, PANEL 9, 69ins, no 184): 22.2 µM
- IC50 ([2]; Human immunodeficiency virus 1, PANEL 12, 69ins + 184): 24.3 µM
- IC50 ([2]; Human immunodeficiency virus 1, PANEL 14, 65R, no 184): 9.17 µM
- IC50 ([2]; Human immunodeficiency virus 1, PANEL 15, 65R + 184V): 14.3 µM
- IC50 ([2]; Human immunodeficiency virus 1, PANEL 17, L74V): 8.94 µM
- IC50 ([2]; Human immunodeficiency virus 1, PANEL 19, L74V + M184V): 11.1 µM
- IC50 ([2]; Human immunodeficiency virus 1, PANEL 26, 151M, no 184): 63.2 µM
- IC50 ([2]; Human immunodeficiency virus 1, PANEL 28, 151M + 184): 58 µM
- IC50 ([2]; Human immunodeficiency virus 1, PANEL 29, L74V − SDM): 8.14 µM
- IC50 ([2]; Human immunodeficiency virus 1, PANEL 30, M184V − SDM): 6.76 µM
- IC50 ([2]; Human immunodeficiency virus 1, PANEL 31, K65R − SDM): 11 µM
- IC50 ([2]; Human immunodeficiency virus 1, PANEL 33, T215Y): 6.29 µM
- IC50 ([2]; Human immunodeficiency virus 1, PANEL 34, T215Y + M184V): 7.88 µM
- IC50 ([2]; Human immunodeficiency virus 1, PANEL 35, M41L + T215Y): 6.29 µM
- IC50 ([2]; Human immunodeficiency virus 1, PANEL 37, M41L + T215Y + M184V): 10.1 µM
- IC50 ([2]; Human immunodeficiency virus 1, PANEL 38, M41L + L210W + T215Y): 7.5 µM
- IC50 ([2]; Human immunodeficiency virus 1, PANEL 39, M41L + L210W + T215Y): 5.9 µM
- IC50 ([2]; Human immunodeficiency virus 1, PANEL 40, M41L + L210W + T215Y + M184V): 8.18 µM
- IC50 ([2]; Human immunodeficiency virus 1, PANEL 41, M41L + L210W + T215Y + M184V): 8.64 µM
- IC50 ([2]; Human immunodeficiency virus 1, PANEL 42, D67N + K70R): 6.57 µM
- IC50 ([2]; Human immunodeficiency virus 1, PANEL 44, D67N + K70R + T215F + K219E + M184V): 8.65 µM
- IC50 ([2]; Human immunodeficiency virus 1, PANEL 45, L210W + T215Y): 5.51 µM
- IC50 ([2]; Human immunodeficiency virus 1, PANEL 46, D67N + K70E): 7.73 µM
- IC50 ([2]; Human immunodeficiency virus 1, PANEL 47, D67N + K70E + M184V): 7.25 µM
- IC50 ([2]; Human immunodeficiency virus 1, PANEL 48, K70E + M184V): 9.91 µM
- IC50 Fold Change ([2]; PANEL 1, WT): 1.01
- IC50 Fold Change ([2]; PANEL 2, WT): 1.01
- IC50 Fold Change ([2]; PANEL 3, 6 TAMs, no 184): 1.59
- IC50 Fold Change ([2]; PANEL 6, 6 TAMs + 184): 2.06
- IC50 Fold Change ([2]; PANEL 7, 184V): 1.38
- IC50 Fold Change ([2]; PANEL 9, 69ins, no 184): 4.04
- IC50 Fold Change ([2]; PANEL 12, 69ins + 184): 4.43
- IC50 Fold Change ([2]; PANEL 14, 65R, no 184): 1.67
- IC50 Fold Change ([2]; PANEL 15, 65R + 184V): 2.61
- IC50 Fold Change ([2]; PANEL 17, L74V): 1.63
- IC50 Fold Change ([2]; PANEL 19, L74V + M184V): 2.01
- IC50 Fold Change ([2]; PANEL 26, 151M, no 184): 12.00
- IC50 Fold Change ([2]; PANEL 28, 151M + 184): 11.00
- IC50 Fold Change ([2]; PANEL 29, L74V − SDM): 1.48
- IC50 Fold Change ([2]; PANEL 30, M184V − SDM): 1.23
- IC50 Fold Change ([2]; PANEL 31, K65R − SDM): 2.00
- IC50 Fold Change ([2]; PANEL 33, T215Y): 1.14
- IC50 Fold Change ([2]; PANEL 34, T215Y + M184V): 1.43
- IC50 Fold Change ([2]; PANEL 35, M41L + T215Y): 1.14
- IC50 Fold Change ([2]; PANEL 37, M41L + T215Y + M184V): 1.84
- IC50 Fold Change ([2]; PANEL 38, M41L + L210W + T215Y): 1.36
- IC50 Fold Change ([2]; PANEL 39, M41L + L210W + T215Y): 1.07
- IC50 Fold Change ([2]; PANEL 40, M41L + L210W + T215Y + M184V): 1.49
- IC50 Fold Change ([2]; PANEL 41, M41L + L210W + T215Y + M184V): 1.57
- IC50 Fold Change ([2]; PANEL 42, D67N + K70R): 1.19
- IC50 Fold Change ([2]; PANEL 44, D67N + K70R + T215F + K219E + M184V): 1.57
- IC50 Fold Change ([2]; PANEL 45, L210W + T215Y): 1.00
- IC50 Fold Change ([2]; PANEL 46, D67N + K70E): 1.41
- IC50 Fold Change ([2]; PANEL 47, D67N + K70E + M184V): 1.32
- IC50 Fold Change ([2]; PANEL 48, K70E + M184V): 1.80
- Antagonism Volume, Result 1 [3]: −1.01 nM^2 %, μM^2 % or nMμM %
- Synergy Volume, Result 1 [3]: 3.38 nM^2 %, μM^2 % or nMμM %

Compound: maraviroc [Maraviroc (MVC)]
- Antagonism Volume, Result 1 [4, 5]: −3.82 nM^2 %, μM^2 % or nMμM %
- Antagonism Volume, Result 2 [4, 5]: −3.12 nM^2 %, μM^2 % or nMμM %
- Antagonism Volume, Result 3 [4, 5]: 0 nM^2 %, μM^2 % or nMμM %
- Mean Antagonism Volume (n = 3) [4, 5]: −2.31 nM^2 %, μM^2 % or nMμM %
- Mean Synergy Volume (n = 3) [4, 5]: 85.3 nM^2 %, μM^2 % or nMμM %
- Synergy Volume, Result 1 [4, 5]: 145 nM^2 %, μM^2 % or nMμM %
- Synergy Volume, Result 2 [4, 5]: 14.1 nM^2 %, μM^2 % or nMμM %
- Synergy Volume, Result 3 [4, 5]: 96.6 nM^2 %, μM^2 % or nMμM %
- Interpretation of Antiviral Results (MacSynergy) ([4]; two-drug combination (with CMX157; control d4T/RBV), MAGI-CCR5 cells): slightly synergistic
